One test concerns B. subtilis (ATCC 6633). The experiment in a line: Minimum inhibitory concentration, broth microdilution. The conditions noted are these: Bacillus subtilis, ATCC6633, read-out: Minimum Inhibitory Concentration B.subtilis. A general note: Dilution methods test growth across graded concentrations, often in twofold steps.
The subject of a further test is MRSA. The description is as above. The conditions noted are these: for MIC: Staphylococcus aureus, MRSA, read-out: Minimum Inhibitory Concentration S.aureus MRSA.
Test [1] addresses T1, E. coli DNA gyrase (Escherichia coli (strain K12), UniProt P0AES4+P0AES6). In words: Agarose gel-based DNA gyrase inhibition assay. Format: biochemical. As to the method:
100 ng of DNA gyrase was used to supercoil the rx pAB1 in the presence of different concentrations of a gyrase inhibitor. […] Samples were analyzed by electrophoresis in 1% w/v agarose gels followed by ethidium bromide staining and photographed under UV light.

Another test relates to S. aureus (ATCC 14775). In words: Minimum inhibitory concentration, broth microdilution. The conditions noted are these: for MIC: Staphylococcus aureus.
Test [2] deals with T1, E. coli DNA gyrase. The experiment in a line: biochemical. The format is biochemical.
For a further test, the target named is Mtb DNA gyrase (Mycobacterium tuberculosis (strain ATCC 25618 / H37Rv), UniProt P9WG45+P9WG47). In words: Mtb DNA gyrase inhibition assay (gel-based). The conditions noted are these: Table 5, Mtb gyrase; read-out: IC50 (µM) Mtb. Format: biochemical. On the procedure: The IC50 against E. coli (A) and Mtb (C) gyrase were determined using the gel-based gyrase inhibition assays. The gyrase mediated DNA cleavage assays (B and D) were performed using pBR322. (A) 229 inhibits E. coli gyrase. Lane 1, rx pAB1. […] Lane 1, rx pAB1. […] 100 µM of CPDs were used. Symbols rx, nk, In, and sc represent relaxed, nicked, linear, and supercoiled DNA, respectively.
Agarose gel-based DNA gyrase inhibition assays were performed in 30 µL of 1 ×gyrase buffer (35 mM Tris-HCl, 24 mM KCl, 4 mM MgCl2, 2 mM DTT, 1.75 mM ATP, 0.1 mg/mL BSA, 6.5% glycerol, pH7.5) containing 400 ng of rx pAB1 at 37° C. 100 ng of DNA gyrase was used to supercoil the rx pAB1 in the presence of different concentrations of a gyrase inhibitor. After 15 minutes of incubation with the inhibitor at 37° C., all reactions were stopped with 1 µL of stop solution (3% SDS and 250 mM EDTA). Samples were analyzed by electrophoresis in 1% w/v agarose gels followed by ethidium bromide staining and photographed under UV light.

A further test has as its system Mtb. In words: Mtb whole cell assay (% inhibition, MIC). Format: cell-based, Mycobacterium tuberculosis. Particulars: Mycobacterium tuberculosis; Table 5 (same values in Table 6 at 20 µM).
Where [3] appears, read: ATCC14775, read-out: Minimum Inhibitory Concentration S.aureus.
Setting [4] is: IC50 ([…]-50 µM), bin of Table 2.
Setting [5] is: IC50 (50-200 µM), bin of Table 2.

Values after ≈ are worked out from the molar mass of the structure shown. Where two headings read alike, the source gives them in different places.

Method for S. aureus (ATCC 14775): Antibacterial minimum inhibitory concentrations (MICs) were obtained from three independent experiments using broth microdilution methods in 96-well plates according to Clinical and Laboratory Standards Institute guidelines. Cells were culture from singles colonies in MHIIB medium for 24 h at 37° C. in agitation (200 RPM). The cultures were then diluted using the same media to reach an OD600 of 0.1. Then, 50 µL of the diluted cultures were added to the plates holding 50 µL of serially diluted compounds in MHIIB. The plates were incubated at 37° C. for 20 h. The starting inoculum was fixated to 10^5 colony-forming units per ml.

Broadly, the IC50 is the concentration that inhibits the measured activity by half. On to `Cc1ccccc1NC1=C/C(=N/S(=O)(=O)c2ccc(C(=O)O)cc2)c2ccccc2C1=O` [Compound 4], for which the values for the MIC in the test with B. subtilis (ATCC 6633), in the test on MRSA and in the test with S. aureus (ATCC 14775) (setting [3]) were 100 µM (≈ 44.6 µg/mL), 50 µM (≈ 22.3 µg/mL) and 50 µM (≈ 22.3 µg/mL), respectively. Besides, on E. coli DNA gyrase [1] (200 µM of compounds), the “inhibition of E. coli DNA gyrase activities” value was “completely inhibited”. The molecule also returned an IC50 against E. coli DNA gyrase [2] (setting [4]) of 25 to 50 µM.

As to `Cc1cc(C)c2c(c1)C(=NNc1ccc(C(=O)O)cc1)C(O)=N2` [Compound 9, 4-[2-(5,7-Dimethyl-2-oxoindol-3-yl)hydrazinyl]benzoic acid], the values for the MIC with B. subtilis (ATCC 6633), in the test with MRSA and in the test on S. aureus (ATCC 14775) (setting [3]) were 25 µM (≈ 7.73 µg/mL), 3.12 µM (≈ 0.967 µg/mL) and 3.12 µM (≈ 0.967 µg/mL), respectively. Moreover, the “growth of MRSA” value with MRSA was “strongly inhibited the growth”. For the same molecule, the “inhibition of E. coli DNA gyrase activities” value at E. coli DNA gyrase [1] (50 µM of compounds) is listed as “completely inhibited”; on E. coli DNA gyrase [1] (200 µM of compounds), “completely inhibited”; on E. coli DNA gyrase [2], “potent gyrase inhibitor”. Besides, the “growth of S. aureus” value with S. aureus (ATCC 14775) is recorded as “strongly inhibited the growth”.

Consider `Cc1cc(/C=C2\SC(=S)N=C2O)c(C)n1-c1cccc(O)c1` [Compound 21], for which the MIC in the test on B. subtilis (ATCC 6633) was 100 µM (≈ 33 µg/mL). In addition, the “inhibition of E. coli DNA gyrase activities” value against E. coli DNA gyrase [1] (50 µM of compounds) and against E. coli DNA gyrase [1] (200 µM of compounds) was “completely inhibited” in each case. Also, the 50% inhibitory concentration (IC50) on E. coli DNA gyrase [2] (setting [4]) lay in the range of 25 to 50 µM.

One may read the inhibition as the drop in the measured response relative to a control, in per cent. For the molecule `Cc1c(CCC(=O)O)c(=O)oc2cc3occ(-c4ccc(Cl)cc4)c3cc12` [Compound 25], the IC50 was 65 µM at Mtb DNA gyrase and 11.5 µM at E. coli DNA gyrase [2] (IC50 (µM) EC, Table 5, E. coli gyrase). Besides, the “inhibition of E. coli DNA gyrase activities” value was “almost completely inhibited” against E. coli DNA gyrase [1] (50 µM of compounds), “completely inhibited” against E. coli DNA gyrase [1] (200 µM of compounds) and “potent bacterial DNA gyrase inhibitors” on E. coli DNA gyrase [2]. In addition, in the test on S. aureus (ATCC 14775) (ATCC14775, read-out: MIC (µM) SA), the MIC was greater than 200 µM. In the test on Mtb, this molecule had an inhibition at 20 µM of 0.8%.

`O=C(O)CCCCCN1C(=O)/C(=C\c2ccc(-c3ccc(Cl)cc3)o2)SC1=S` [Compound 36]: the MIC with B. subtilis (ATCC 6633) stood at 12.5 µM (≈ 5.45 µg/mL). The “inhibition of E. coli DNA gyrase activities” value at E. coli DNA gyrase [1] (50 µM of compounds) and against E. coli DNA gyrase [1] (200 µM of compounds) was “completely inhibited” each time.

Turning to `O=C(O)CCCN1C(=O)C(=Cc2ccc(-c3nc4ccccc4s3)o2)SC1=S` [Compound 41], the MIC in the test with B. subtilis (ATCC 6633) is 6.25 µM (≈ 2.69 µg/mL). Besides, the “inhibition of E. coli DNA gyrase activities” value at E. coli DNA gyrase [1] (50 µM of compounds) and on E. coli DNA gyrase [1] (200 µM of compounds) was “completely inhibited” each time.

`O=C1/C(=C\c2ccc(O)cc2)SC(=S)N1Cc1ccccc1` [Compound 44]: the figures for the MIC with B. subtilis (ATCC 6633), in the test with MRSA and in the test on S. aureus (ATCC 14775) (setting [3]) were 25 µM (≈ 8.19 µg/mL), 25 µM (≈ 8.19 µg/mL) and 12.5 µM (≈ 4.09 µg/mL), respectively. For the same molecule, the “inhibition of E. coli DNA gyrase activities” value on E. coli DNA gyrase [1] (200 µM of compounds) is reported as “completely inhibited”. On E. coli DNA gyrase [2] (setting [5]), the IC50 lay in the range of 50 to 200 µM.

For the molecule `CN1C[C@H](CNC(=O)OCc2ccccc2)C[C@@H]2c3cccc4c3c(cn4C)C[C@H]21` [Compound 45], the MIC in the test with B. subtilis (ATCC 6633), in the test with MRSA and in the test on S. aureus (ATCC 14775) (setting [3]) was 100 µM (≈ 40.4 µg/mL) each time. Besides, at E. coli DNA gyrase [1] (200 µM of compounds), the “inhibition of E. coli DNA gyrase activities” value was “almost completely inhibited”. In addition, on E. coli DNA gyrase [2] (setting [5]), the IC50 fell in the range of 50 to 200 µM.

Take `Cc1ccc(-c2csc(NC(=O)c3cccc(C)c3)c2C(=O)O)cc1` [Compound 58]: the MIC in the test on B. subtilis (ATCC 6633), in the test on MRSA and in the test with S. aureus (ATCC 14775) (setting [3]) was 100 µM (≈ 35.1 µg/mL) each time. Besides, the “inhibition of E. coli DNA gyrase activities” value on E. coli DNA gyrase [1] (200 µM of compounds) was “completely inhibited”. The IC50 on E. coli DNA gyrase [2] (setting [5]) is 50 to 200 µM.

As for `O=C(O)c1cc(O)c2c(c1)C(=O)c1cccc(O)c1C2=O` [Compound 82], the MIC with B. subtilis (ATCC 6633) and with S. aureus (ATCC 14775) (setting [3]) was 50 µM (≈ 14.2 µg/mL) each time. On E. coli DNA gyrase [1] (200 µM of compounds), the “inhibition of E. coli DNA gyrase activities” value is given as “almost completely inhibited”. The IC50 on E. coli DNA gyrase [2] (setting [5]) was 50 to 200 µM.

As for `CCc1ccc(S(=O)(=O)/N=C2/C=C(Nc3ccc(C(=O)O)cc3)C(=O)c3ccccc32)cc1` [Compound 104], the MIC worked out at 50 µM (≈ 23 µg/mL) in the test on B. subtilis (ATCC 6633), 100 µM (≈ 46.1 µg/mL) with MRSA and 100 µM (≈ 46.1 µg/mL) in the test on S. aureus (ATCC 14775) (setting [3]). For the same molecule, on E. coli DNA gyrase [1] (50 µM of compounds), the “inhibition of E. coli DNA gyrase activities” value is recorded as “completely inhibited”. For the same molecule, on E. coli DNA gyrase [2] (setting [4]), the IC50 fell in the range of 25 to 50 µM.

Take `COc1cccc(-n2c(C)cc(/C=C3/C(=N)N4C(=NC3=O)SN=C4[S+](C)[O-])c2C)c1` (centres unmarked) [Compound 105]: the MIC is 25 µM (≈ 11 µg/mL) with B. subtilis (ATCC 6633), 100 µM (≈ 44.2 µg/mL) in the test on MRSA and 50 µM (≈ 22.1 µg/mL) in the test on S. aureus (ATCC 14775) (setting [3]). Further, the “inhibition of E. coli DNA gyrase activities” value against E. coli DNA gyrase [1] (50 µM of compounds) was “completely inhibited”. In addition, on E. coli DNA gyrase [2] (setting [4]), the IC50 was 25 to 50 µM.

For the origin of these results see patent US20230364057A1, “BACTERIAL DNA GYRASE INHIBITORS AND METHODS OF USE THEREOF” (THE FLORIDA INTERNATIONAL UNIVERSITY BOARD OF TRUSTEES, priority 2022, published 2023).
